The subject of experiment [1] is St. aureus. The experiment is described as follows: Minimal inhibitory concentration (CMI), broth microdilution in microplates. In kind it is cell-based, Staphylococcus aureus. The conditions noted are these: 10^6 germes par ml, 24 h at 32° C, first line of each compound in the table. The protocol:
(§1) • Staphylococcus aureus 6538 P • Staphylococcus aureus de pathologies cutanées isolées de l'hôpital Rangueil Toulouse - (France)
• . Bouillon Trypticase soja (Biomérieux)
(§2) Les solutions-mère des produits cités ci-dessous ont été préparées dans l'alcool puis dissoutes dans l'eau distillée stérile de façon à être en final à 200 µg/ml et environ 10° éthanolique (sous lumière jaune). • . Rétinal all Trans • . Rétinal 9 Cis (Sigma R 5754 - lot 62 H 84 43) • . Rétinal 13 Cis (Sigma R 6256 - lot 81 H 8440)
(§3) Une distribution de 100 µl de bouillon Trypticase soja est réalisée dans chaque microcupule de la microplaque stérile (A).
(§4) Un témoin stérilité du milieu et un autre témoin de la vigueur de la souche sont réalisés en parallèle sur la microplaque.
(§5) L'ensemencement de la microplaque (A) a lieu sous la hotte après préparation de l'inoculum bactérien comme suit :
(§6) Les souches ayant été préalablement repiquées la veille sur gélose Trypticase soja, un inoculum 10^8 germes/ml est dispersé dans l'eau distillée stérile puis agité au vortex.
(§7) Les billes de verre assurant une bonne dispersion des souches, la mesure de la densité permet de préparer un inoculum adéquat par rapport à un étalonnage pré-établi et validé.
(§8) La répartition de la souche a lieu dans une deuxième microplaque (B) stérile par distribution de 100 µl d'inoculum par microcupule.
(§9) L'ensemencement a lieu par un repiquage de la microplaque (B) vers la microplaque (A), il se réalise ainsi une dilution au 1/100 de l'inoculum : la microplaque A contenant 10^6 germes par ml, peut être mise à l'étuve 24 h à 32° C.
(§10) La lecture de la plus grande dilution donnant lieu à une clarté identique au témoin stérilité du milieu, constitue la concentration minimale inhibitrice.
(In general: Dilution methods test growth across graded concentrations, often in twofold steps.)

Experiment [2] relates to St. epidermis. Described as above. In kind it is cell-based. The following applies: 10^6 germes par ml, 24 h at 32° C, first line of each compound in the table. The protocol:
as §2, §3, §4, §5, §6, §7, §8, §9, §10

Experiment [3] concerns St. aureus. The experiment is described as follows: Minimal bactericidal concentration (CMB), subculture of the microplate on trypticase soy agar. Format: cell-based, Staphylococcus aureus. The following applies: subculture 24-48 h at 32° C, second line of each compound in the table. The protocol: as §1
(§11) • . Gélose Trypticase soja (Biomérieux)
as §2
(§12) Le repiquage de la microplaque A sur une gélose trypticase soja préalablement coulée, permet après culture de 24-48 h à 32° C, la lecture de la concentration CMB = plus petite concentration ne permettant pas de croissance sur la gélose.

Experiment [4] relates to St. epidermis. The description is as above. The conditions noted are these: subculture 24-48 h at 32° C, second line of each compound in the table. In kind it is cell-based. Here is the method: as §11, §2, §12
Experiment [5] relates to adhésion des Gram positifs aux cornéocytes. The experiment is described as follows: Adhesion of staphylococci to corneocytes according to Cole and Silverberg (1986). The following applies: doses infrabactériostatiques. Format: cell-based. From the text: Le rétinaldéhyde et ses isomères dont le 9 et le 13 cis-rétinaldéhyde possèdent une activité ciblée sur les Gram positifs, en particulier du genre Staphylococcus dont le staphylocoque doré. […] L'efficacité a pu être mise en évidence par le calcul des concentrations minimales inhibitrices et bactéricides sur des souches polyrésistantes issues de prélèvements cutanés isolés en milieu hospitalier et par études de l'adhésion du staphylocoque aux cornéocytes selon Cole et Silverber (1986).
• 1. Thabaut A. et Meyran M. (1989) Activité bactéricide comparée de quatorze antibiotiques sur staphylococcus aureus. Path. Biol. 37 : 321 - 328. • 2. Cole G.W.; Silvergerg N.L (1986) The adherence of staphylococcus aureus to human corneocytes. Arch. Dermatol. 122 : 166 - 169.

For the next experiment, the system named is St. aureus 6538 P. The experiment is described as follows: Bactericidal kinetics and D. value. Format: cell-based, Staphylococcus aureus. The protocol: Le niveau d'efficacité, de l'ordre du microgramme, a été prouvé pour des souches de staphylocoques plurirésistantes notamment aux aminosides, tétracyclines et macrolides. L'efficacité bactéricide a pu être chiffrée. En effet, le rétinal à 0,1% a une D. value (temps nécessaire pour faire chuter la population du nombre de germes) sur Staphylococcus aureus 6538 P de 14,8 minutes avec un coefficient de corrélation de 0,999 en ce qui concerne la droite de régression linéaire reliant la population de germes au temps de contact germe-rétinaldéhyde.
La D. value du Rétinal à 0,1 % P/V dans une solution éthanolique à 20 % V/V a été recherchée sur St. aureus 6538 P.
La cinétique des prélèvements microbiens a été réalisée aux temps 15', 30', 60', 4h et 6h. L'inoculum de départ étant de 1,0.10^4 germes par ml, la neutralisation se réalise d'après les temps cités dans du Bouillon Trypticase Soja, supplémenté par 10 % de Tween 80. Le neutralisant a été validé au préalable.

For another experiment, the system named is staphylococcus aureus. The following applies: from reference 1 (Thabaut and Meyran 1989); cited from earlier work.

For `CC1=C(/C=C/C(C)=C\C=C\C(C)=C\C=O)C(C)(C)CCC1` [RETINAL 9 Cis, 9 cis-rétinaldéhyde], the CMI in the experiment on St. aureus [1] is reported as 0,0003%; in the experiment with St. epidermis [2], 0,0001%. The CMB was 0,0025% with St. aureus [3] and 0,0006% in the experiment with St. epidermis [4].

As for `CC1=C(/C=C/C(C)=C/C=C/C(C)=C\C=O)C(C)(C)CCC1` [RETINAL 13 Cis, 13 cis-rétinaldéhyde], the results for the CMI in the experiment on St. aureus [1] and in the experiment on St. epidermis [2] were 0,0006% and 0,0001%, respectively. The CMB in the experiment on St. aureus [3] is on record as 0,0025%; with St. epidermis [4] it was 0,0006%.

For the molecule `CC1=C(/C=C/C(C)=C/C=C/C(C)=C/C=O)C(C)(C)CCC1` [RETINALDEHYDE ALL TRANS, rétinaldéhyde tout trans], the CMI is 0,0003% with St. aureus [1] and 0,0001% in the experiment on St. epidermis [2]. The CMB is on record as 0,0012% in the experiment on St. aureus [3] and 0,0003% with St. epidermis [4].

Consider `CC(C=CC=C(C)C=CC1=C(C)CCCC1(C)C)=CC=O` [Rétinal, rétinal], for which, in experiment [5], the “inhibition de l'adhésion des Gram positifs aux cornéocytes” value was “activité inhibant d'adhésion des Gram positifs aux cornéocytes”. Besides, in the experiment with St. aureus 6538 P (Rétinal 0,1 % P/V in 20 % V/V ethanolic solution, St. aureus 6538 P, linear regression r = 0,99), the D. value is recorded as 14,8 mn. Besides, the “surviving germs, Temps 15” value with St. aureus 6538 P (Rétinal 0,1 % P/V in 20 % V/V ethanolic solution, contact 15', starting inoculum 1,0.10^4 germes par ml) is 1,4.10^3. Moreover, in the experiment on St. aureus 6538 P (Rétinal 0,1 % P/V in 20 % V/V ethanolic solution, contact 30', starting inoculum 1,0.10^4 germes par ml), the “surviving germs, Temps 30” value is on record as 1,3.10^2. Also, in the experiment on St. aureus 6538 P (Rétinal 0,1 % P/V in 20 % V/V ethanolic solution, contact 60', starting inoculum 1,0.10^4 germes par ml), the “surviving germs, Temps 60” value is on record as 0. Moreover, the “surviving germs, Temps 4h” value with St. aureus 6538 P (Rétinal 0,1 % P/V in 20 % V/V ethanolic solution, contact 4h, starting inoculum 1,0.10^4 germes par ml) worked out at 0. In addition, in the experiment on St. aureus 6538 P (Rétinal 0,1 % P/V in 20 % V/V ethanolic solution, contact 6h, starting inoculum 1,0.10^4 germes par ml), the “surviving germs, Temps 6h” value is 0. In the experiment on St. aureus 6538 P (log of surviving germs, Rétinal 0,1 %, contact 15'), the “Log, Temps 15” value was 3,15. Also, the “Log, Temps 30” value in the experiment on St. aureus 6538 P (log of surviving germs, Rétinal 0,1 %, contact 30') is recorded as 2,11. Moreover, the “D. value (temps nécessaire pour faire chuter la population du nombre de germes)” value with St. aureus 6538 P (rétinal à 0,1%, Staphylococcus aureus 6538 P, coefficient de corrélation 0,999) is on record as 14,8 minutes.

Consider `CC[C@H]1OC(=O)[C@H](C)[C@@H](O[C@H]2C[C@@](C)(OC)[C@@H](O)[C@H](C)O2)[C@H](C)[C@@H](O[C@@H]2O[C@H](C)C[C@H](N(C)C)[C@H]2O)[C@](C)(O)C[C@@H](C)C(=O)[C@H](C)[C@@H](O)[C@]1(C)O` [érythromycine], for which the “temps pour faire chuter la population microbienne de 2 Log 10” value in the experiment on staphylococcus aureus is on record as 48 heures.

These data come from EP0840602B1, “USE OF A RETINOID FOR PREPARING AN ANTIBACTERIAL DRUG” (Pierre Fabre Dermo-Cosmetique, priority 1995, dated 1997).
